This test concerns EG7-OVA cells. The experiment in a line: In vitro cytotoxicity assay (specific killing by OT-I CD8+ T-lymphocytes). The format is cell-based, mouse. The following applies: 0.5 mM for 24 h, 4 hours with target and control cells. The procedure: Total splenocytes were activated for 48 h with 1000 nM SIINFEKL and then expanded for a further 4 days in the presence of IL-2 followed by treatment 0.5 mM of S-2HG-octyl R-2HG-octyl ester ester for 24 h. OT-I CD8^+ T-lymphocytes were incubated with target and control cells for 4 hours. n=3 mice per condition. […] Cells were activated for 48 h with αCD3+αCD28 antibodies and then expanded for a further 4 days in the presence of IL-2 followed by treatment with the indicated concentration of S-2HG-octyl ester or R-2HG-octyl ester for 24 hours. n≥16 mice.
Total splenocytes from OT-I mice were activated with SIINFEKL-peptide for 48 h and expanded for a further 4 days in IL-2 containing medium. OT-I-specific CD8^+ T-cells were then treated for 24 h with or without 0.5 mM S-2HG-octyl ester or R-2HG-octyl ester and then incubated with target (EG7-OVA, CFSE-low) and control (EL4, CFSE high) cells. Specific lysis was calculated by normalization of the loss in signal of the CFSE-low population relative to the CFSE-high population after co-culture of 4 hours with the vehicle or S-2HG-octyl ester or R-2HG-octyl ester-treated OT-I-specific CD8^+ T-cells.

With `CCCCCCCCOC(=O)[C@H](O)CCC(=O)O` [R-2HG-octyl ester], the “lytic ability of antigen specific OT-I CD8+ T-cells” value is given as “markedly lower”. The entry for `CCCCCCCCOC(=O)[C@@H](O)CCC(=O)O` [S-2HG-octyl ester, S-2HG octyl ester] is “markedly lower”.

These data come from US20190316085A1, “Methods Of T-Lymphocyte Expansion” (Cambridge Enterprise Limited, priority 2015, published 2019).
